target: T1, CYP11A1 (Homo sapiens, UniProt P05108); experiment: CYP11A1 inhibition: modified isocaproic acid release assay (IARA) in H295R cells; format: cell-based; settings: human H295R adrenocortical carcinoma cells treated three days, 3 nM [24,25-3H]-labelled cholesterol, 1% DMSO, 10 concentrations in duplicates; read-out: IC50 of the test compounds on CYP11A1 inhibition
T1 construct: human H295R adrenocortical carcinoma cell line was used as source of enzyme; endogenous in cells; host or cells: H295R human adrenocortical carcinoma cells
T1 sequence (P05108 40-521): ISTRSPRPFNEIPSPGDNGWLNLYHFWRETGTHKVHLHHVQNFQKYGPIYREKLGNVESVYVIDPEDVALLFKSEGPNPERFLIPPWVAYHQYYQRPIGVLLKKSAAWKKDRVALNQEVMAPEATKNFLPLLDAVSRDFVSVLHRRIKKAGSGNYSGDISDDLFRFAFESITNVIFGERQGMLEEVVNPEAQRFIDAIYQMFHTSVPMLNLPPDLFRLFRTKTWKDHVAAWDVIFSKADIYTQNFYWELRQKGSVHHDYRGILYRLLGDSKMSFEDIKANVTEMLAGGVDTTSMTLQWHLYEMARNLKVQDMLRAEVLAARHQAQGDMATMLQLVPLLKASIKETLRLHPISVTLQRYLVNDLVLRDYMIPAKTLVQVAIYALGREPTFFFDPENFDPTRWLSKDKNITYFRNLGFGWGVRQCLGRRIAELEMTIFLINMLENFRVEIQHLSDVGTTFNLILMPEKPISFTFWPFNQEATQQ
Method in brief: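 Cholesterol side-chain cleavage followed as tritiated isocaproic acid in charcoal-extracted medium, counted by scintillation. Substrate was 3 nM [24,25-3H]-cholesterol on human H295R cells exposed for three days to ten compound concentrations (duplicates, 1% DMSO); IC50 derived.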

Row | SMILES | IC50
1 | CC(C)(CO)CNC(=O)c1ccc(COc2coc(CN3Cc4ccccc4C3)cc2=O)cc1 [Compound 151, N-(3-Hydroxy-2,2-dimethylpropyl)-4-(((6-(isoindolin-2-ylmethyl)-4-oxo-4H-pyran-3-yl)oxy)methyl)benzamide] | 301 to 2000 nM
2 | O=C(c1ccc(COc2coc(CN3Cc4ccccc4C3)cc2=O)cc1)N1CCC(O)CC1 [Compound 152, 5-((4-(4-Hydroxypiperidine-1-carbonyl)benzyl)oxy)-2-(isoindolin-2-ylmethyl)-4H-pyran-4-one] | 301 to 2000 nM
3 | O=C(COc1coc(CN2Cc3ccccc3C2)cc1=O)N1CCN(Cc2ccccc2)CC1 [Compound 153, 5-(2-(4-Benzylpiperazin-1-yl)-2-oxoethoxy)-2-(isoindolin-2-ylmethyl)-4H-pyran-4-one] | 301 to 2000 nM
4 | O=C(COc1coc(CN2Cc3ccccc3C2)cc1=O)N1CCN(c2ccc(Cl)cc2)CC1 [Compound 154, 5-(2-(4-(4-Chlorophenyl)piperazin-1-yl)-2-oxoethoxy)-2-(isoindolin-2-ylmethyl)-4H-pyran-4-one] | 301 to 2000 nM
5 | O=C(COc1coc(CN2Cc3ccccc3C2)cc1=O)N1CCC(Cc2ccccc2)CC1 [Compound 155, 5-(2-(4-Benzylpiperidin-1-yl)-2-oxoethoxy)-2-(isoindolin-2-ylmethyl)-4H-pyran-4-one] | 301 to 2000 nM
6 | O=C(COc1coc(CN2Cc3ccccc3C2)cc1=O)N1CCN(S(=O)(=O)c2ccccc2)CC1 [Compound 156, 2-(Isoindolin-2-ylmethyl)-5-(2-oxo-2-(4-(phenylsulfonyl)piperazin-1-yl)ethoxy)-4H-pyran-4-one] | 301 to 2000 nM
7 | Cc1ccc(S(=O)(=O)N2CCN(C(=O)COc3coc(CN4Cc5ccccc5C4)cc3=O)CC2)cc1 [Compound 157, 2-(Isoindolin-2-ylmethyl)-5-(2-oxo-2-(4-tosylpiperazin-1-yl)ethoxy)-4H-pyran-4-one] | 301 to 2000 nM
8 | COCc1cccnc1N1CCN(C(=O)COc2coc(CN3Cc4ccccc4C3)cc2=O)CC1 [Compound 159, 2-(Isoindolin-2-ylmethyl)-5-(2-(4-(3-(methoxymethyl)pyridin-2-yl)piperazin-1-yl)-2-oxoethoxy)-4H-pyran-4-one] | 301 to 2000 nM
9 | O=C(c1ccc(COc2coc(CN3Cc4ccccc4C3)cc2=O)cc1)N1CCCC(O)C1 (stereo not drawn) [Compound 160, 5-((4-(3-Hydroxypiperidine-1-carbonyl)benzyl)oxy)-2-(isoindolin-2-ylmethyl)-4H-pyran-4-one] | 301 to 2000 nM
10 | CCS(=N)(=O)c1ccc(COc2coc(CN3CCc4ccccc4C3)cc2=O)cc1 (stereo not drawn) [Compound 166, 2-((3,4-Dihydroisoquinolin-2(1H)-yl)methyl)-5-((4-(ethylsulfonimidoyl)-benzyl)oxy)-4H-pyran-4-one] | 301 to 2000 nM
11 | CN(C)C(=O)c1ccc(COc2coc(CN3Cc4ccccc4C3)cc2=O)nc1 [Compound 170, 6-(((6-(Isoindolin-2-ylmethyl)-4-oxo-4H-pyran-3-yl)oxy)methyl)-N,N-dimethyl-nicotinamide] | 301 to 2000 nM
12 | NC(=O)c1ccc(COc2coc(CN3Cc4ccccc4C3)cc2=O)cc1F [Compound 171, 2-Fluoro-4-(((6-(isoindolin-2-ylmethyl)-4-oxo-4H-pyran-3-yl)oxy)methyl)-benzamide] | 301 to 2000 nM
13 | COC(=O)[C@H]1CC[C@H](COc2coc(CN3Cc4ccccc4C3)cc2=O)CC1 [Compound 178, Methyl (1r,4r)-4-(((6-(isoindolin-2-ylmethyl)-4-oxo-4H-pyran-3-yl)oxy)methyl)-cyclohexane-1-carboxylate] | 301 to 2000 nM
14 | CS(=O)(=O)N1CCC(COc2coc(CN3CCc4ccccc4C3)cc2=O)CC1 [Compound 179, 2-((3,4-Dihydroisoquinolin-2(1H)-yl)methyl)-5-((1-(methylsulfonyl)piperidin-4-yl)methoxy)-4H-pyran-4-one] | 301 to 2000 nM
15 | CC(C)(C)OC(=O)N1CCC(COc2coc(CN3Cc4ccccc4C3)cc2=O)C1 (stereo not drawn) [Compound 182, tert-Butyl 3-(((6-(isoindolin-2-ylmethyl)-4-oxo-4H-pyran-3-yl)oxy)methyl)-pyrrolidine-1-carboxylate] | 301 to 2000 nM
16 | CN(C)C(=O)N1CCC(COc2coc(CN3Cc4ccccc4C3)cc2=O)C1 (stereo not drawn) [Compound 183, 3-(((6-(Isoindolin-2-ylmethyl)-4-oxo-4H-pyran-3-yl)oxy)methyl)-N,N-dimethyl-pyrrolidine-1-carboxamide] | 301 to 2000 nM

Results, then the compound that gave them:

Row | IC50 | SMILES
17 | 150 to 300 nM | O=C(c1ccc(COc2coc(CN3Cc4ccccc4C3)cc2=O)cc1)N1CC(F)(F)C1 [Compound 158, 5-((4-(3,3-Difluoroazetidine-1-carbonyl)benzyl)oxy)-2-(isoindolin-2-ylmethyl)-4H-pyran-4-one]
18 | 150 to 300 nM | O=C(c1ccc(COc2coc(CN3Cc4ccc(F)cc4C3)cc2=O)cc1)N1CC(F)(F)C1 [Compound 161, 5-((4-(3,3-Difluoroazetidine-1-carbonyl)benzyl)oxy)-2-((5-fluoroisoindolin-2-yl)methyl)-4H-pyran-4-one]
19 | < 150 nM | COc1ccc2c(c1)CN(Cc1cc(=O)c(OCc3ccc(C(=O)N4CC(F)(F)C4)cc3)co1)C2 [Compound 162, 5-((4-(3,3-Difluoroazetidine-1-carbonyl)benzyl)oxy)-2-((5-methoxyisoindolin-2-yl)methyl)-4H-pyran-4-one]
20 | 150 to 300 nM | O=C(c1ccc(COc2coc(CN3Cc4ccc(Cl)cc4C3)cc2=O)cc1)N1CC(F)(F)C1 [Compound 163, 2-((5-Chloroisoindolin-2-yl)methyl)-5-((4-(3,3-difluoroazetidine-1-carbonyl)-benzyl)oxy)-4H-pyran-4-one]
21 | 150 to 300 nM | O=c1cc(CN2Cc3ccccc3C2)occ1OCc1ccc(-c2ccccc2)cc1 [Compound 164, 5-([1,1′-Biphenyl]-4-ylmethoxy)-2-(isoindolin-2-ylmethyl)-4H-pyran-4-one]
22 | 150 to 300 nM | O=c1cc(CN2Cc3ccccc3C2)occ1OCc1ccc(-c2ccccn2)cc1 [Compound 165, 2-(Isoindolin-2-ylmethyl)-5-((4-(pyridin-2-yl)benzyl)oxy)-4H-pyran-4-one]
23 | 150 to 300 nM | CCS(=N)(=O)c1ccc(COc2coc(CN3Cc4ccc([N+](=O)[O-])cc4C3)cc2=O)cc1 (stereo not drawn) [Compound 168, 5-((4-(Ethylsulfonimidoyl)benzyl)oxy)-2-((5-nitroisoindolin-2-yl)methyl)-4H-pyran-4-one]
24 | 150 to 300 nM | CCCCNC(=O)c1ccc(COc2coc(CN3Cc4ccccc4C3)cc2=O)cc1 [Compound 169, N-Butyl-4-(((6-(isoindolin-2-ylmethyl)-4-oxo-4H-pyran-3-yl)oxy)methyl)-benzamide]
25 | < 150 nM | CN(C)C(=O)c1cc(F)c(COc2coc(CN3Cc4ccccc4C3)cc2=O)c(F)c1 [Compound 172, 3,5-Difluoro-4-(((6-(isoindolin-2-ylmethyl)-4-oxo-4H-pyran-3-yl)oxy)methyl)-N,N-dimethylbenzamide]
26 | < 150 nM | CS(=O)(=O)NCC1CCC(COc2coc(CN3Cc4ccccc4C3)cc2=O)CC1 (stereo not drawn) [Compound 173, N-((4-(((6-(Isoindolin-2-ylmethyl)-4-oxo-4H-pyran-3-yl)oxy)methyl)cyclohexyl)-methyl)methanesulfonamide]
27 | 150 to 300 nM | CN(C)C(=O)c1c(F)cc(COc2coc(CN3Cc4ccccc4C3)cc2=O)cc1F [Compound 174, 2,6-Difluoro-4-(((6-(isoindolin-2-ylmethyl)-4-oxo-4H-pyran-3-yl)oxy)methyl)-N,N-dimethylbenzamide]
28 | < 150 nM | O=c1cc(CN2Cc3ccccc3C2)occ1OCC1CCC(CN2CCCS2(=O)=O)CC1 (stereo not drawn) [Compound 176, 5-((4-((1,1-Dioxidoisothiazolidin-2-yl)methyl)cyclohexyl)methoxy)-2-(isoindolin-2-ylmethyl)-4H-pyran-4-one]
29 | 150 to 300 nM | CS(=O)(=O)N1[C@@H]2CC[C@H]1CC(COc1coc(CN3Cc4ccccc4C3)cc1=O)C2 (stereo partly drawn) [Compound 177, 2-(Isoindolin-2-ylmethyl)-5-(((1R,5S)-8-(methylsulfonyl)-8-azabicyclo[3.2.1]-octan-3-yl)methoxy)-4H-pyran-4-one]
30 | 150 to 300 nM | O=C1NCc2cc(COc3coc(CN4Cc5ccccc5C4)cc3=O)ccc21 [Compound 180, 5-(((6-(Isoindolin-2-ylmethyl)-4-oxo-4H-pyran-3-yl)oxy)methyl)isoindolin-1-one]
31 | 150 to 300 nM | CN(C)C(=O)N1CCC(COc2coc(CN3Cc4ccc(F)cc4C3)cc2=O)CC1 [Compound 181, 4-(((6-((5-Fluoroisoindolin-2-yl)methyl)-4-oxo-4H-pyran-3-yl)oxy)methyl)-N,N-dimethylpiperidine-1-carboxamide]
32 | < 150 nM | CS(=O)(=O)N1CCC(COc2coc(CN3Cc4ccc(C(F)(F)F)cc4C3)cc2=O)CC1 [Compound 184, 5-((1-(Methylsulfonyl)piperidin-4-yl)methoxy)-2-((5-(trifluoromethyl)isoindolin-2-yl)methyl)-4H-pyran-4-one]
33 | < 150 nM | CS(=O)(=O)N1CCC(COc2coc(CN3Cc4ccccc4C3)cc2=O)CC1 [Compound 185, 2-(Isoindolin-2-ylmethyl)-5-((1-(methylsulfonyl)piperidin-4-yl)methoxy)-4H-pyran-4-one]

From patent publication US11098032B2, “Pyran dervatives as CYP11A1 (cytochrome P450 monooxygenase 11A1) inhibitors” (ORION CORPORATION, priority 2016, dated 2021)
